From ChEMBL document CHEMBL3217678 (Medchemcomm, 2011) come the findings set out here.

A word on the pIC50: it is the IC50 on a negative log10 scale, so that one unit is a factor of ten.

A short description of assay [1]: Inhibition of Mycobacterium tuberculosis 20S proteasome open-gate mutant using Suc-LLVY-AMC as substrate preincubated for 30 mins followed by substrate addition measured after 90 mins by fluorescence assay.
For assay [2], the system named is Mycobacterium tuberculosis. The experiment in a line: Inhibition of Mycobacterium tuberculosis 20S proteasome open-gate mutant chymotrypsin like activity using Suc-LLVY-AMC as substrate assessed as decrease in enzyme velocity up to 100 uM.
Assay [3] relates to Mycobacterium tuberculosis. Briefly: Inhibition of Mycobacterium tuberculosis 20S proteasome open-gate mutant using Suc-LLVY-AMC as substrate at 1 mM preincubated for 30 mins followed by substrate addition measured after 90 mins by fluorescence assay.
The nature of assay [4]: Selectivity for Mycobacterium tuberculosis 20S proteasome open-gate mutant over human 20S proteasome.

pIC50: −log10 of the molar value. The source made the active and inactive calls. The rule behind the calls is not given here.

The compound `CC(C)C[C@H](NC(=O)[C@H](Cc1ccccc1)NC(=O)c1cnccn1)B(O)O` [BORTEZOMIB] had a negative logarithm of the IC50 (pIC50) in assay [1] of 7.60.
Turning to `CC(C)C[C@@H](NC(=O)[C@H](Cc1ccccc1)NC(=O)c1cnccn1)c1nsc(=O)o1`, the inhibition entry in assay [2] and in assay [3] was “inactive” throughout.
Turning to `COc1cccc(-c2nsc(=O)o2)c1`, the Selectivity ratio in assay [4] is over 1000.
For `CC(C)C[C@H](NC(=O)[C@H](Cc1ccccc1)NC(=O)c1cnccn1)c1nsc(=O)o1`, the inhibition result in assay [2] and in assay [3] was “inactive” throughout.
